Source: patent publication EP4818330A1, “PHARMACEUTICAL PREPARATION FOR DIAGNOSING AND TREATING ALZHEIMER'S DISEASE” (Shanghai East Hospital Tongji University, priority 2023, dated 2025)
Where “and” joins values, the source holds several entries; their conditions need not be identical. Equal entries are not always repeated. Where two headings read alike, the source gives them in different places.

Assays:
[1] = system: APP/PS1 transgenic mice; assay: Dendritic spine density of hippocampal neurons in brain slices of AD mice; format: in vivo
Procedure: (§1) Thy1-GFP mice are commonly used in neuroscience research. The fluorescence labeling of GFP facilitates convenient observation and tracking of specific cell types, especially neurons. APP/PS1 transgenic mice (an animal model of Alzheimer's disease) were crossed with Thy1-GFP mice. The crossed mice aged 5 months were intraperitoneally injected with a compound solution at a concentration of 2.5 mg/kg for 1 month continuously. Subsequently, the crossed mice aged 6 months were subjected to behavioral test (Morris water maze MWM experiment) to evaluate learning and memory abilities (as shown in FIG. 22).
After the water maze behavioral test, the mice were anesthetized and perfused, and then brain tissue sections were taken. The density of neuronal dendritic spines was observed under a confocal fluorescence microscope using GFP green fluorescence.

[2] = Drug content in brain tissue after single intraperitoneal administration; format: in vivo, Balb/c strain mice; conditions: mice; for concentration at 0.5 h: brain, ip
Procedure: (§2) Research method: first, Balb/c strain mice were administered with a single intraperitoneal injection at a concentration of 2.5 mg/kg, and the content of the compound in serum was detected at 0.25, 0.5, 1, 2, 4, 6, 8 and 24 h after injection; second, brain tissues of mice at 0.5, 4 and 24 h after injection were collected to detect the compound content, so as to evaluate the blood-brain barrier penetration rate.

[3] = CCK8 cell viability (toxicity) assay in 293T cell line; format: cell-based; conditions: human, 293T cells, 293T, 24 h, CCK8, three replicate wells
Source text: (§3) The CCK8 cell viability assay (CCK8) was adopted. Its principle is mainly based on the reduction reaction of WST-8 (chemical name: 2-(2-methoxy-4-nitrophenyl)-3-(4-nitrophenyl)-5-(2,4-disulfophenyl)-2H-tetrazolium monosodium salt). In the presence of living cells, WST-8 can be reduced by dehydrogenases in mitochondria to generate a highly water-soluble orange-yellow formazan product. The color intensity is directly proportional to the number of living cells, wherein the quantity of living cells can be indirectly reflected by measuring the absorbance of formazan products (typically at a wavelength of 450 nm). The CCK-8 assay is widely used in cell proliferation assay, cytotoxicity assay and tumor drug sensitivity test.
(§4) In in vitro experiments, the compound stock solution was prepared into 10 mM with DMSO and diluted with a culture medium before use. The 293T cell line was used for preliminary concentration screening of the compound, wherein concentration gradients were set as follows: 5 µmol, 10 µmol, 20 µmol, 40 µmol, 80 µmol and 160 µmol. After the cells were treated with the compound for 24 h, the CCK8 detection kit was used, wherein the cell viability was calculated based on the absorbance values detected by a microplate reader. Data processing was performed using GraphPad Prism software to plot the IC50 curve.

[4] = system: 293T cell line; assay: as above; format: cell-based; conditions: 293T, 24 h, CCK8, three replicate wells
Source text: as §3, §4

[5] = system: APP/PS1 transgenic mice; assay: Morris water maze in APP/PS1 x Thy1-GFP mice; format: in vivo
Procedure: as §1
Water maze: A water maze experimental apparatus is circular stainless steel with a diameter of 100 cm and a height of 50 cm, wherein a pool is equally divided into 4 quadrants according to the 4 orientations of east, south, west and north, a circular black hidden platform with a diameter of 9 cm and a height of 27 cm is placed in the center of the target quadrant. […] The movement trajectory of the mouse was synchronously recorded by the camera directly above the water pool, and analyzed by the EthovisionXT monitoring and analysis system. […] The mouse swam in the water for 60 s, and the percentage of time the mouse spent in the target platform quadrant was recorded, representing the learning and memory ability of the mouse.

[6] = Blood drug concentration in mice after single intraperitoneal administration; format: in vivo, Balb/c strain mice
Procedure: Compound preparation: A compound of Formula I was commercially available, which was dissolved and diluted with a solution comprising 10% DMSO+90% (20% HP-β-CD).
as §2

[7] = IP 2.5 mg/kg, 0.5 hr, individual animals, 2.5 mg/kg
[8] = IP 2.5 mg/kg, 24 hr, individual animals
[9] = IP 2.5 mg/kg, 24 hr, mean of 3 animals

CCOC(=O)c1[nH]c(C)c(CCC(=O)N2CCCC(C(=O)NCCN3CCCCCC3)C2)c1C (centres unmarked) [compound of Formula I, ETHYL4-[3-(3-{[2-(AZEPAN-1-YL)ETHYL]CARBAMOYL}PIPERIDIN-1-YL)-3-OXOPROPYL]-3, 5-DIMETHYL-1H-PYRROLE-2-CARBOXYLATE]
dendritic spine density of hippocampal neurons (normalized to the control group) ([1]; APP SW + intervention, IP 2.5 mg/kg for 1 month, brain slices, individual neurons, 2.5 mg/kg): 0.7721 and 0.7284 and 0.6276 and 0.7954 and 0.8425 and 0.7853 | dendritic spine density of hippocampal neurons ([1]; after compound intervention vs AD mice): increased | concentration at 0.5 h ([2]; Balb/c, mouse, 2.5 mg/kg, IP 2.5 mg/kg, 0.5 hr, individual animals, read-out: Concentration (brain tissue)): 16.8 ng/mL | concentration at 0.5 h ([2]; Balb/c, mouse, 2.5 mg/kg, IP 2.5 mg/kg, 0.5 hr, mean of 3 animals, read-out: Concentration (brain tissue) Mean): 13.8 ng/mL | Kp at 0.5 h ([2]; Balb/c, mouse, IP 2.5 mg/kg, 0.5 hr, brain tissue vs blood): 0.037 | Concentration (brain tissue) [2, 7]: 10.3 ng/mL and 14.4 ng/mL | Concentration (brain tissue) ([2]; IP 2.5 mg/kg, 4 hr, individual animals): BLOQ (BLOQ = Below LOQ, LOQ = 2.0 ng/mL) | Concentration (brain tissue) Mean ([2]; IP 2.5 mg/kg, 4 hr, mean of 3 animals): BLOQ (BLOQ = Below LOQ, LOQ = 2.0 ng/mL) | Concentration (brain tissue) [2, 8]: BLOQ (BLOQ = Below LOQ, LOQ = 2.0 ng/mL) | Concentration (brain tissue) Mean [2, 9]: BLOQ (BLOQ = Below LOQ, LOQ = 2.0 ng/mL) | blood-brain barrier penetration ([2]; brain tissue 0.5 h after single IP injection 2.5 mg/kg): capable of crossing the blood-brain barrier | viability at 24 h, 5 µmol ([3]; 5 µmol): 96.6% | viability at 24 h, 10 µmol ([3]; 10 µmol): 109% | viability at 24 h, 20 µmol ([3]; 20 µmol): 93.1% | viability at 24 h, 40 µmol ([3]; 40 µmol): 86.7% | viability at 24 h, 80 µmol ([3]; 80 µmol): 22.7% | viability at 24 h, 160 µmol ([3]; 160 µmol): 27.2% | cell viability ([4]; 5 µmol): 106.6% and 109.2% | cell viability ([4]; 10 µmol): 109.8% and 96.54% | cell viability ([4]; 20 µmol): 95.56% and 93.46% | cell viability ([4]; 40 µmol): 86.71% and 78.81% | cell viability ([4]; 80 µmol): 24% and 23.36% | cell viability ([4]; 160 µmol): 32.01% and 28.26% | time percentage in the platform quadrant ([5]; APP/PS1+ intervention, IP 2.5 mg/kg for 1 month, day 7 spatial exploration, individual animals, 2.5 mg/kg): 12.17% and 26.78% and 27.89% and 19.335% and 31.945% and 22% and 29.11% | time percentage of mice in the platform quadrant ([5]; after compound intervention vs APP/PS1 mice): increased | concentration at 0.25 h ([6]; Balb/c, mouse, serum, ip, 2.5 mg/kg, IP 2.5 mg/kg, 0.25 hr, individual animals, read-out: Concentration (blood)): 369 ng/mL | concentration at 0.25 h ([6]; Balb/c, mouse, serum, ip, 2.5 mg/kg, IP 2.5 mg/kg, 0.25 hr, mean of 3 animals, read-out: Concentration (blood) Mean): 423 ng/mL | concentration at 0.5 h ([6]; Balb/c, mouse, serum, ip, 2.5 mg/kg, IP 2.5 mg/kg, 0.5 hr, individual animals, read-out: Concentration (blood)): 364 ng/mL | concentration at 0.5 h ([6]; Balb/c, mouse, serum, ip, 2.5 mg/kg, IP 2.5 mg/kg, 0.5 hr, mean of 3 animals, read-out: Concentration (blood) Mean): 374 ng/mL | concentration at 1 h ([6]; Balb/c, mouse, serum, ip, 2.5 mg/kg, IP 2.5 mg/kg, 1 hr, mean of 3 animals): 145 ng/mL | concentration at 2 h ([6]; Balb/c, mouse, serum, ip, 2.5 mg/kg, IP 2.5 mg/kg, 2 hr, mean of 3 animals): 36.1 ng/mL | concentration at 4 h ([6]; Balb/c, mouse, serum, ip, 2.5 mg/kg, IP 2.5 mg/kg, 4 hr, mean of 3 animals): 5.14 ng/mL | Concentration (blood) ([6]; IP 2.5 mg/kg, 0.25 hr, individual animals, 2.5 mg/kg): 350 ng/mL and 551 ng/mL | Concentration (blood) [6, 7]: 328 ng/mL and 431 ng/mL | Concentration (blood) ([6]; IP 2.5 mg/kg, 1 hr, individual animals, 2.5 mg/kg): 118 ng/mL and 217 ng/mL and 99.3 ng/mL | Concentration (blood) ([6]; IP 2.5 mg/kg, 2 hr, individual animals, 2.5 mg/kg): 22.7 ng/mL and 63.7 ng/mL and 22.0 ng/mL | Concentration (blood) ([6]; IP 2.5 mg/kg, 4 hr, individual animals, 2.5 mg/kg): 3.63 ng/mL and 8.64 ng/mL and 3.15 ng/mL | Concentration (blood) ([6]; IP 2.5 mg/kg, 6 hr, individual animals): BLOQ (BLOQ = Below LOQ, LOQ = 2.0 ng/mL) | Concentration (blood) Mean ([6]; IP 2.5 mg/kg, 6 hr, mean of 3 animals): BLOQ (BLOQ = Below LOQ, LOQ = 2.0 ng/mL) | Concentration (blood) ([6]; IP 2.5 mg/kg, 8 hr, individual animals): BLOQ (BLOQ = Below LOQ, LOQ = 2.0 ng/mL) | Concentration (blood) Mean ([6]; IP 2.5 mg/kg, 8 hr, mean of 3 animals): BLOQ (BLOQ = Below LOQ, LOQ = 2.0 ng/mL) | Concentration (blood) [6, 8]: BLOQ (BLOQ = Below LOQ, LOQ = 2.0 ng/mL) | Concentration (blood) Mean [6, 9]: BLOQ (BLOQ = Below LOQ, LOQ = 2.0 ng/mL) | blood concentration of the compound ([6]; single IP injection 2.5 mg/kg, after 6 h): undetectable
